In PubChem BioAssay (NCI):
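Abbreviation: GI50, concentration required for 50% inhibition of growth. TGI marks complete inhibition of growth.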

Tests used:
Assay in all cases: NCI-60 cell line screen, 384-well format
SK-MEL-28 melanoma = test system: SK-MEL-28 melanoma
SW-620 colon = test system: SW-620 colon
HOP-92 NSCLC = test system: HOP-92 NSCLC
NCI-H460 NSCLC = test system: NCI-H460 NSCLC
OVCAR-8 ovarian = test system: OVCAR-8 ovarian
UO-31 renal = test system: UO-31 renal
LOX IMVI melanoma = test system: LOX IMVI melanoma
UACC-257 melanoma = test system: UACC-257 melanoma
NCI-H522 lung = test system: NCI-H522 lung
HT29 colon = test system: HT29 colon
SN12C renal = test system: SN12C renal
MDA-MB-468 breast = test system: MDA-MB-468 breast
DU-145 prostate = test system: DU-145 prostate
SR leukemia = test system: SR leukemia
SK-OV-3 ovarian = test system: SK-OV-3 ovarian
EKVX NSCLC = test system: EKVX NSCLC
MDA-MB-231 breast = test system: MDA-MB-231 breast
SNB-19 CNS = test system: SNB-19 CNS
MDA-MB-435 melanoma = test system: MDA-MB-435 melanoma
UACC-62 melanoma = test system: UACC-62 melanoma
SNB-75 CNS = test system: SNB-75 CNS
T-47D breast = test system: T-47D breast
A549 NSCLC = test system: A549 NSCLC
786-0 renal = test system: 786-0 renal
NCI-H322M lung = test system: NCI-H322M lung
RPMI-8226 leukemia = test system: RPMI-8226 leukemia
MOLT-4 leukemia = test system: MOLT-4 leukemia
CCRF-CEM leukemia = test system: CCRF-CEM leukemia
SF-295 CNS = test system: SF-295 CNS

Compound: O=C(Nc1cccc(Nc2ncc(Br)c(NCCc3cnc[nH]3)n2)c1)N1CCCC1
- GI50 (SK-MEL-28 melanoma): 5.06 µM
- TGI (SK-MEL-28 melanoma): 18.7 µM
- GI50 (SW-620 colon): 1.6 µM
- TGI (SW-620 colon): 5.1 µM
- GI50 (HOP-92 NSCLC): 1.6 µM
- TGI (HOP-92 NSCLC): 6.13 µM
- GI50 (NCI-H460 NSCLC): 2.96 µM
- TGI (NCI-H460 NSCLC): 8.71 µM
- GI50 (OVCAR-8 ovarian): 5.61 µM
- TGI (OVCAR-8 ovarian): 18.9 µM
- GI50 (UO-31 renal): 26.6 µM
- TGI (UO-31 renal): > 100 µM
- GI50 (LOX IMVI melanoma): 1.18 µM
- TGI (LOX IMVI melanoma): 2.8 µM
- GI50 (UACC-257 melanoma): 10.5 µM
- TGI (UACC-257 melanoma): 22.4 µM
- GI50 (NCI-H522 lung): 1.08 µM
- TGI (NCI-H522 lung): 4.86 µM
- GI50 (HT29 colon): 4.1 µM
- TGI (HT29 colon): 18.5 µM
- GI50 (SN12C renal): 1.48 µM
- TGI (SN12C renal): 10.6 µM
- GI50 (MDA-MB-468 breast): 0.283 µM
- TGI (MDA-MB-468 breast): 0.631 µM
- GI50 (DU-145 prostate): 5.13 µM
- TGI (DU-145 prostate): 19.3 µM
- GI50 (SR leukemia): 0.18 µM
- TGI (SR leukemia): 0.349 µM
- GI50 (SK-OV-3 ovarian): 4.21 µM
- TGI (SK-OV-3 ovarian): 18.8 µM
- GI50 (EKVX NSCLC): 6.65 µM
- TGI (EKVX NSCLC): 27.3 µM
- GI50 (MDA-MB-231 breast): 2.4 µM
- TGI (MDA-MB-231 breast): 12.7 µM
- GI50 (SNB-19 CNS): 8.32 µM
- TGI (SNB-19 CNS): 46.8 µM
- GI50 (MDA-MB-435 melanoma): 2.96 µM
- TGI (MDA-MB-435 melanoma): 16.5 µM
- GI50 (UACC-62 melanoma): 1.69 µM
- TGI (UACC-62 melanoma): 14.2 µM
- GI50 (SNB-75 CNS): 2 µM
- TGI (SNB-75 CNS): 8.78 µM
- GI50 (T-47D breast): 4.37 µM
- TGI (T-47D breast): 17.2 µM
- GI50 (A549 NSCLC): 6.32 µM
- TGI (A549 NSCLC): > 100 µM
- GI50 (786-0 renal): 5.36 µM
- TGI (786-0 renal): 19.5 µM
- GI50 (NCI-H322M lung): 10.3 µM
- TGI (NCI-H322M lung): 22.3 µM
- GI50 (RPMI-8226 leukemia): 1.45 µM
- TGI (RPMI-8226 leukemia): 2.9 µM
- GI50 (MOLT-4 leukemia): 0.202 µM
- TGI (MOLT-4 leukemia): 0.403 µM
- GI50 (CCRF-CEM leukemia): 0.19 µM
- TGI (CCRF-CEM leukemia): 0.377 µM
- GI50 (SF-295 CNS): 3.77 µM
- TGI (SF-295 CNS): 14.5 µM
